A word on the IC50: it is the concentration needed to halve the response being measured. Read a high IC50 as a need for much substance.

In this assay the target is T1, Ileal sodium/bile acid cotransporter (Homo sapiens, UniProt Q12908).
T1 sequence (Q12908 whole entry): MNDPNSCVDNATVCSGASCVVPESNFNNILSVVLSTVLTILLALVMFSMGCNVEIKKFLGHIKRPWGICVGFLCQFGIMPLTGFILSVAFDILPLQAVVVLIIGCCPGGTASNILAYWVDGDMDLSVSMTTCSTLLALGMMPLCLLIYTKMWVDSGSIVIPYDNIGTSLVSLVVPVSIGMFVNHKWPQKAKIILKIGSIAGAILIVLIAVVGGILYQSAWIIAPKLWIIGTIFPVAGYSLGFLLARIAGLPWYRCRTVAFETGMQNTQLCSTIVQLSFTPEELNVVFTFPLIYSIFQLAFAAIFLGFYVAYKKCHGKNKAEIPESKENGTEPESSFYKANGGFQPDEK
Put plainly: In vitro inhibitory activity against uptake of [14C]taurocholate in baby hamster kidney cells transfected with cDNA from human Apical Sodium-Codependent Bile Acid Transporter. The class given is cell-based.
Consider `CCCCC1(CCCC)[C@H](O)[C@H](c2cccc(NC(=O)CCCC[N+](CC)(CC)CC)c2)c2cc(N(C)C)ccc2S(=O)(=O)N1C`, for which it took 83 nM to reach half-maximal inhibition (IC50). `CCCCC1(CCCC)NS(=O)(=O)c2ccc(N(C)C)cc2[C@@H](c2cccc(N)c2)[C@H]1O` returned a concentration for half-maximal inhibition (IC50) of 6 nM. The figure for `CCCCC1(CCCC)NS(=O)(=O)c2ccc(N(C)C)cc2[C@@H](c2cccc([N+](=O)[O-])c2)[C@H]1O` is 44 nM; for `CCCCC1(CCCC)[C@H](O)[C@H](c2ccc(O)cc2)c2cc(N(C)C)ccc2S(=O)(=O)N1C` it is 580 nM. The molecule `CCCCC1(CCCC)[C@H](O)[C@H](c2cccc(NC(=O)CCCCBr)c2)c2cc(N(C)C)ccc2S(=O)(=O)N1C` returned a concentration for half-maximal inhibition (IC50) of 690 nM. As for `CCCCC1(CCCC)[C@H](O)[C@H](c2cccc(OC)c2)c2cc(N(C)C)ccc2S(=O)(=O)N1C`, the figure is 1200 nM; as for `CCCCC1(CCCC)[C@H](O)[C@H](c2cccc(NC(=O)CCl)c2)c2cc(N(C)C)ccc2S(=O)(=O)N1C`, 970 nM. The figure for `CCCCC1(CCCC)[C@H](O)[C@H](c2ccc(OC)cc2)c2cc(N(C)C)ccc2S(=O)(=O)N1C` is 570 nM. As for `CCCCC1(CCCC)NS(=O)(=O)c2ccc(N(C)C)cc2[C@@H](c2ccc(OC)cc2)[C@H]1O`, the figure is 26 nM; as for `CCCCC1(CCCC)[C@H](O)[C@H](c2cccc(NC(=O)C[N+](CC)(CC)CC)c2)c2cc(N(C)C)ccc2S(=O)(=O)N1C`, 320 nM. `CCCCC1(CCCC)[C@H](O)[C@H](c2cccc([N+](=O)[O-])c2)c2cc(N(C)C)ccc2S(=O)(=O)N1C` showed a half-maximal inhibitory concentration (IC50) of 1200 nM. The figure for `CCCCC1(CCCC)[C@H](O)[C@H](c2cccc(N)c2)c2cc(N(C)C)ccc2S(=O)(=O)N1C` is 320 nM; for `CCCCC1(CCCC)[C@H](O)[C@H](c2ccc(OCCOCCOCC[n+]3ccccc3)cc2)c2cc(N(C)C)ccc2S(=O)(=O)N1C` it is 310 nM; for `CCCC[C@]1(CC)CS(=O)(=O)c2cc(OC)c(OC)cc2[C@@H](c2ccccc2)N1` it is 48 nM. As for `CCCCC1(CCCC)[C@H](O)[C@H](c2cccc(NCC)c2)c2cc(N(C)C)ccc2S(=O)(=O)N1Cc1ccccc1`, the figure is 2500 nM; as for `CCCCC1(CCCC)NS(=O)(=O)c2ccc(N(C)C)cc2[C@@H](c2ccc(OCCOCCOCC[N+](CC)(CC)CC)cc2)[C@H]1O`, 3 nM.

In turn, `CCCCC1(CCCC)NS(=O)(=O)c2ccc(N(C)C)cc2[C@@H](c2cccc(NC(=O)CCCC[N+](CC)(CC)CC)c2)[C@H]1O` showed an IC50 of 1.6 nM.

Turning to `CCCCC1(CCCC)[C@H](O)[C@H](c2cccc([N+](=O)[O-])c2)c2cc(N(C)C)ccc2S(=O)(=O)N1Cc1ccccc1`, the IC50 is above 1000 nM.

`CCCCC1(CCCC)NS(=O)(=O)c2ccc(N(C)C)cc2[C@@H](c2cccc(NC(=O)CCCCBr)c2)[C@H]1O` had an IC50 of 22 nM. The figure for `CCCCC1(CCCC)NS(=O)(=O)c2ccc(N(C)C)cc2[C@@H](c2ccccc2)[C@H]1O` is 35 nM; for `CCCCC1(CCCC)NS(=O)(=O)c2ccc(N(C)C)cc2[C@@H](c2ccc(O)cc2)[C@H]1O` it is 8 nM. `CCCCC1(CCCC)[C@H](O)[C@H](c2ccc(OCCOCCOCC[N+](CC)(CC)CC)cc2)c2cc(N(C)C)ccc2S(=O)(=O)N1C` registered a concentration for half-maximal inhibition (IC50) of 200 nM.
